Laboratory results taken from patent US20260315437A1, “COMBINATION OF NAB-SIROLIMUS AND AN ESTROGEN SUPPRESOR FOR USE IN THE TREATMENT OF HORMONE-DEPENDENT CANCERS” (AADI Bioscience, Inc., priority 2023, published 2026).

What was measured:
[1] = test system: ABCB1/ABCG2; conditions: cited from earlier work
[2] = in vivo; cited from earlier work
[3] = test system: human plasma proteins; conditions: cited from earlier work
[4] = test system: p4EBP1; assay: Western blot analysis of p4EBP1 in MCF7 cells; assay type: cell-based; conditions: single agent, FIG. 3
Protocol: (§1) A series of single-agent treatments of fulvestrant or nab-sirolimus and combination treatments of both fulvestrant and nab-sirolimus were separately applied to aliquots of hormone receptor positive breast cancer cell lines (either MCF7 or MDA-MB-361). The series including varying concentration of nab-sirolimus (20 nM or 80 nM) and fulvestrant (0.98 nM to 1000 nM). Following the application of the individual treatments, the cell aliquots were incubated for 5 days. Subsequently, the antiproliferative and cytotoxic effects of single agent and combination treatments were assessed using an automated trypan blue exclusion assay.
Western blot analysis was performed to assess p4EBP1 in MCF7 cells. […] Thus, addition of nab-sirolimus to endocrine-based therapies, such as fulvestrant, may overcome mechanisms of resistance.

[5] = test system: pAKT; assay: Western blot analysis of pAKT in MCF7 cells; assay type: cell-based; conditions: fulvestrant combined with nab-sirolimus, FIG. 3, effect on nab-sirolimus-induced increase
Protocol: as §1
Western blot analysis was performed to assess pAKT in MCF7 cells. […] Thus, addition of fulvestrant, to mTOR targeting agents, such as nab-sirolimus may overcome mechanisms of resistance.

[6] = test system: mTORC1 at Ser2448; conditions: cited from earlier work
[7] = test system: HSA; conditions: cited from earlier work
[8] = test system: CYP3A4; conditions: role: substrate; cited from earlier work

COc1ccc(COc2cc3oc(=O)c4cc(C(C)O)ccc4c3cc2OC)cc1 (stereo not drawn) [Palomid 529]
affinity for ABCB1/ABCG2 [1]: lacks affinity for ABCB1/ABCG2 | brain penetration [2]: good brain penetration

CC(=O)O[C@@]12CO[C@@H]1C[C@H](O)[C@@]1(C)C(=O)[C@H](O)C3=C(C)[C@@H](OC(=O)[C@H](O)[C@@H](NC(=O)OC(C)(C)C)c4ccccc4)C[C@@](O)([C@@H](OC(=O)c4ccccc4)[C@H]21)C3(C)C [docetaxel]
binding to human plasma proteins [3]: shown to bind to human plasma proteins

C[C@]12CC[C@@H]3c4ccc(O)cc4C[C@@H](CCCCCCCCC[S+]([O-])CCCC(F)(F)C(F)(F)F)[C@H]3[C@@H]1CC[C@@H]2O (stereo partly drawn) [fulvestrant]
p4EBP1 level [4]: increased p4EBP1 in response to fulvestrant in a dose-dependent manner | pAKT level in combination [5]: reversed by combination with fulvestrant in a dose-dependent manner

COc1ccc(-c2ccc3c(N4CCOCC4)nc(N4C[C@@H](C)O[C@@H](C)C4)nc3n2)cc1CO [KU-0063794]
inhibition of phosphorylation of mTORC1 at Ser2448 [6]: inhibits the phosphorylation of mTORC1 at Ser2448 in a dose-dependent and time-dependent manner

CC(C)c1cccc(C(C)C)c1O [propofol]
binding to HSA [7]: shown to bind HSA

CO[C@H]1C[C@@H]2CC[C@@H](C)[C@@](O)(O2)C(=O)C(=O)N2CCCC[C@H]2C(=O)O[C@H]([C@H](C)C[C@@H]2CC[C@@H](O)[C@H](OC)C2)CC(=O)[C@H](C)/C=C(\C)[C@@H](O)[C@@H](OC)C(=O)[C@H](C)C[C@H](C)/C=C/C=C/C=C/1C [Sirolimus, sirolimus]
metabolism [8]: metabolized primarily by CYP3A4 | binding to HSA [7]: shown to bind HSA
